This note sets out measurements from patent publication US11628159B2, “Cell-protective compounds and their use” (ETH ZURICH, priority 2017, dated 2023).

In experiment [1] the test system is GRK2-mediated phosphorylation of SRSF1. Kind of experiment: Immunoblot of SRSF1 phosphorylation (pSRSF1) in HEK (human embryonic kidney) cells. The class given is cell-based. The settings on record: 10 microM, 60 h, relative to vehicle. The protocol:
A, The GRK2-mediated phosphorylation of SRSF1/Srsf1 was determined by immunoblot in lysates from isolated neonatal cardiomyocytes from Tg-SRSF1 mice after incubation for 60 h with 10 microM of paroxetine, 1-(1,3-benzodioxol-5-yl)-4-(cyclopropane-carbonyl)-3-hydroxy-2-phenyl-2H-pyrrol-5-one (“Compound-1”) or 4-(1,3-benzodioxol-5-yl)pyrimidine (“Compound-4”) relative to vehicle-treated control (“C”) cardiomyocytes. B, Immunoblot detection of GRK2-mediated phosphorylation of SRSF1 (pSRSF1) was performed with lysates from HEK (human embryonic kidney) cells incubated for 60 h with 10 microM of 4-(1,3-benzodioxol-5-yl)pyrimidine (“Compound-4”), 1-(1,3-benzodioxol-5-ylmethyl)-5-(4-chlorophenyl)-2-methyl-pyrrole-3-carboxamide (“Compound-24”) or (4R)-N3-(1,3-benzodioxol-5-ylmethyl)-N4-[[3-(trifluoromethyl)phenyl]-methyl]pyrrolidine-3,4-dicarboxamide (“Compound-5”) relative to vehicle-treated controls (“C”).
Briefly, the hearts were dissected out from 2-3 day-old mice, atria and aorta were removed, and the hearts were transferred into sterile buffer A (137 mM NaCl, 5.36 mM KCl, 0.81 mM MgSO4, 5.55 mM dextrose, 0.44 mM KH2PO4, 0.34 mM Na2HPO4, 20 mM HEPES, 100 U/ml penicillin, 100 microg/ml streptomycin, pH 7.4). […]
On the technique in general: A western blot detects proteins with antibodies after separation by electrophoresis.

The next experiment deals with B6 mice with AAC. The experiment in a line: Chronic pressure overload (AAC) model, 7 days of treatment: cardiac p-Srsf1 and echocardiography. The settings on record: 5 mg/kg/d for 7 days. The class given is in vivo, mouse. The method, then:
A, The GRK2-mediated phosphorylation of Srsf1 was determined by immunoblot in cardiac lysates prepared from hearts of non-transgenic B6 mice after treatment (i.p.) for 5 h with 10 mg/kg of 1-(1,3-benzodioxol-5-yl)-4-(cyclopropane-carbonyl)-3-hydroxy-2-phenyl-2H-pyrrol-5-one (“Compound-1”), 4-(1,3-benzodioxol-5-yl)pyrimidine (“Compound-4”), 1-(1,3-benzodioxol-5-ylmethyl)-5-(4-fluorophenyl)-2-methyl-pyrrole-3-carboxamide (“Compound-2”), or (4R)-N3-(1,3-benzodioxol-5-ylmethyl)-N4-[[3-(trifluoromethyl)phenyl]-methyl]pyrrolidine-3,4-dicarboxamide (“Compound-5”) relative to vehicle-treated B6 controls (“con”). […] B, Left panel: The AAC-induced cardiac p-Srsf1 content was determined in cardiac lysates from B6 mice with AAC after treatment for 7 days with 5 mg/kg/d of 1-(1,3-benzodioxol-5-yl)-4-(cyclopropane-carbonyl)-3-hydroxy-2-phenyl-2H-pyrrol-5-one (“Compound-1”) or (4R)-N3-(1,3-benzodioxol-5-ylmethyl)-N4-[[3-(trifluoromethyl)phenyl]-methyl]pyrrolidine-3,4-dicarboxamide (“Compound-5”) relative to vehicle-treated B6 controls with AAC (“AAC-con”). […] Right and lower panels: Cardiac function parameters were determined by echocardiography in B6 mice with AAC after treatment for 7 days with “Compound-1” or “Compound-5” relative to vehicle-treated B6 controls with AAC ((±s.d.; n=5 (A) and n=3 (B); Dunnett's Multiple Comparison Test vs. con (A) or AAC-con (B)). […]

As for `c1cc(-c2ccc3c(c2)OCO3)ncn1` [Compound-4, 4-(1,3-benzodioxol-5-yl)pyrimidine], the “SRSF1 phosphorylation in human kidney cells” value in experiment [1] is “inhibited”.

As to `O=C(C1=C(O)C(c2ccccc2)N(c2ccc3c(c2)OCO3)C1=O)C1CC1` (stereo not drawn) [Compound-1, 1-(1,3-benzodioxol-5-yl)-4-(cyclopropane-carbonyl)-3-hydroxy-2-phenyl-2H-pyrrol-5-one], in the experiment on B6 mice with AAC (echocardiography), the “cardiac performance after chronic pressure overload imposed by AAC” value is reported as “improved”. The “chronic pressure overload-induced cardiac p-Srsf1 content” value in the experiment on B6 mice with AAC (relative to vehicle) was “retarded”.
